# Laboratory results: article PMC7970697, “Inhibition and Induction by Poziotinib of Different Rat Cytochrome P450 Enzymes In Vivo and in an In Vitro Cocktail Method” (Frontiers in Pharmacology, 2021)
# What was measured:
# [1] = test system: cytochrome P450 (CYP) enzymes; design: method as in Dungo et al., 2013; settings: ref Dungo et al., 2013; cited from earlier work
# [2] = test system: CYP2C9; settings: 2019, cited from earlier work
# [3] = test system: cyp2b1; design: method as in Ma et al., 2015; settings: in rats; ref Ma et al., 2015; cited from earlier work
# [4] = test system: CYP2D6; settings: cited from earlier work
# [5] = in vivo; settings: for Vd/F: Vz/F
# Experimental: Samples were analyzed by a UPLC-MS/MS system equipped with a triple quadrupole mass spectrometer (Waters Corp., Milford, MA, United States) and Acquity UPLC BEH C18 column (1.7 μm, 2.1 × 50 mm) at 40°C. The mobile phase consisted of acetonitrile (A) and 0.1% formic acid (B) with a linear gradient elution at 0.4 ml/min for 3 min.
# Twelve male Sprague-Dawley rats (230 ± 20 g) were randomly divided into treated and control groups, with 6 in each group. […] The supernatant was mixed with 200 μL of acetonitrile and 20 μL of 0.5 μg/ml diazepam (IS), vortexed for 30 s, centrifuged at 13,000 rpm for 5 min, and the supernatant was injected into the UPLC-MS/MS system for analysis.
# Pharmacokinetic parameters were calculated using DAS software (Version 3.2.8). SPSS software (version 16.0; SPSS Inc., Chicago, IL, United States) was used to analyze the significance of differences between the main pharmacokinetic parameters. p < 0.05 was considered statistically significant. GraphPad (version 8.0; GraphPad Software Inc., San Diego, CA, United States) was used to calculate IC50 and plot the plasma concentration-time curves and inhibition plots (type of inhibition, time- and concentration-dependence).
# [6] = male, Sprague-Dawley, rat, in vivo, po
# [7] = male, Sprague-Dawley, rat, plasma, po, Control group: oral probe cocktail only (10 mg/kg; tolbutamide 1 mg/kg), rats, n = 6
# [8] = male, Sprague-Dawley, rat, plasma, po, Treated group: oral probe cocktail (10 mg/kg; tolbutamide 1 mg/kg) after 7 days oral poziotinib 5 mg/kg, rats, n = 6
# [9] = rats, poziotinib 5 mg/kg 7 days vs probes only
# [10] = rats, poziotinib 5 mg/kg 7 days vs probes only (Discussion)
smiles,measurement,setting,value
CN(C)C/C=C/C(=O)Nc1cc2c(Nc3ccc(F)c(Cl)c3)ncnc2cc1O[C@H]1CCOC1 [Afatinib],inhibition or induction of CYP enzymes,[1],no inhibition or induction
C#Cc1cccc(Nc2ncnc3cc(OCCOC)c(OCCOC)cc23)c1 [Erlotinib],"effect on metabolism of warfarin, a CYP2C9 substrate","[2]; in human, ref Hiraide et al.",inhibit warfarin metabolism
same,effect on cyp2b1 activity,[3],may inhibit
COc1cc2ncnc(Nc3ccc(F)c(Cl)c3)c2cc1OCCCN1CCOCC1 [Gefitinib],effect on CYP2D6,"[4]; ref Prommer, 2004, Hiraide et al., 2019",inhibit
same,effect on CYP2C9,"[2]; ref Prommer, 2004, Hiraide et al.",inhibit
CCCCNC(=O)NS(=O)(=O)c1ccc(C)cc1 [Tolbutamide],Tmax,[5]; [6],2.67 ± 0.52 h
same,t1/2z,[5]; [6],9.10 ± 4.20 h
same,Tmax,"[5]; male, Sprague-Dawley, rat, in vivo, po, Tmax",2.33 ± 0.52 h
same,half-life,"[5]; male, Sprague-Dawley, rat, in vivo, po, t1/2z",12.7 ± 4.84 h
same,CL/F,"[5]; male, Sprague-Dawley, rat, plasma, po, CLz/F, Control group: oral probe cocktail only (10 mg/kg; tolbutamide 1 mg/kg), rats, n = 6",0.02 L/h/kg
same,Cmax,[5]; [7],3.7 µg/mL
same,Cmax,[5]; [8],4.92 µg/mL
same,Vd/F,[5]; [7],0.27 ± 0.04 L/kg
same,Vd/F,[5]; [8],0.25 ± 0.1 L/kg
same,"AUC (0–∞) increasing by, treated vs control group",[5]; [9],51.60%
same,CLz/F lower than control group by,[5]; [9],50%
same,AUC(0–t) of treated group as fold of control group value,[5]; [10],1.43 fold
same,CLz/F of treated group as fold of control group value,[5]; [10],0.5 fold
COc1cc2ncnc(Nc3ccc(F)c(Cl)c3)c2cc1NC(=O)/C=C/CN1CCCCC1 [dacomitinib],effect on CY2D6,"[4]; ref Shirley, 2018",potent inhibitor
